The record followed here is patent US9284307B2, “Macrocyclic serine protease inhibitors” (Idenix Pharmaceuticals LLC, priority 2009, dated 2016).

The assay relates to HCV Con1 subgenomic replicon in Huh-7 cells (GS4.1 cells). Nature of the assay: HCV replicon assay (NS4A ELISA, GS4.1 cells). It counts as cell-based. Particulars: Hepatitis C virus, 72 hr. As for the experimental part:
Huh-7 cells containing HCV Con1 subgenomic replicon (GS4.1 cells) were grown in Dulbecco's Modified Eagle Medium (DMEM) supplemented with 10% fetal bovine serum (FBS), 2 mM L-glutamine, 110 mg/L sodium pyruvate, 1× non-essential amino acids, 100 U/mL penicillin-streptomycin, and 0.5 mg/mL G418 (Invitrogen). For dose-response testing, the cells were seeded in 96-well plates at 7.5×10^3 cells/well in a volume of 50 μL, and incubated at 37° C./5% CO2. Three hours after plating, 50 μL of ten 2-fold serial dilutions of compounds (highest concentration, 75 μM) were added, and cell cultures were incubated at 37° C./5% CO2 in the presence of 0.5% DMSO. Alternatively, compounds were tested at a single concentration of 15 μM. In all cases, Huh-7 cells lacking the HCV replicon served as negative control. The cells were incubated in the presence of compounds for 72 hr after which they were monitored for expression of the NS4A protein by enzyme-linked immunosorbent assay (ELISA). […] The reaction was stopped after 30 min with 2 N H2SO4, and absorbance was read at 492 nm using Sunrise Tecan spectrophotometer. EC50 values were determined from the % inhibition versus concentration data using a sigmoidal non-linear regression analysis based on four parameters with Tecan Magellan software.
A general note: Replicon systems follow genome replication, usually without infectious particles.

One may read the EC50 as the concentration that produces a half-maximal response. Low values mean greater potency, high ones weaker potency.

The molecule `COc1ccc2c(O[C@H]3CC[C@H]4C(=O)N(C)CCCC/C=C\[C@@H]5C[C@@]5(C(=O)NS(=O)(=O)C5(C)CC5)NC(=O)[C@@H]4C3)cc(-c3nc(C(F)(F)F)cs3)nc2c1C` [Compound 51] showed a concentration for a half-maximal effect (EC50) of less than 1 µM.
